Reference: patent US20220280594A1, “APPLICATION OF POLYPEPTIDE OR DERIVATIVE THEREOF” (CHENGDU HUITAI BIOMEDICINE CO., LTD., priority 2019, published 2022)
Ends that are not written are not given here. PEG = not defined here

How the values were obtained:
Type in all cases: cell-based
[1] = system: human lung squamous carcinoma cells (NCI-H226); assay: scratch assay, migration of NCI-H226 cells; conditions: NCI-H226, 10 μM, 48 hours; control group 65.31 ± 3.19
Procedure: (§1) In the scratch assay, the cell migration rate was negatively correlated with the inhibitory effect of the drug component on tumor cell migration ability. The cell migration inhibition experiment was described as follows: tumor cells were cultured in vitro, cells in logarithmic growth phase were collected and seeded evenly in a 24-well plate at a density of 1-2×10^5 cells/well; the cells were cultured in a cell incubator until a monolayer was formed; a scratch tool was used to make a “-” (straight) scratch on the monolayer of cells; the cells were washed 1-3 times with PBS, and a medium (with 2% fetal bovine serum) containing specific test components was added to the culture. Experimental grouping: PBS control group; polypeptide or derivative thereof treatment group (N1-N54), 10 μM. Three independent parallel wells were set up in each group, and the cells were cultured continuously in a cell incubator for 48 hours. […] At least 3 representative images for each well were taken. ImageJ software was used to count the migration distance of the cells, and the cell migration rate was calculated as: cell migration rate (%)=(width of original scratch−width of current scratch)/width of original scratch×100.
This example was a scratch assay to evaluate the inhibitory effect of the polypeptide or derivative thereof (N1-N54) on the migration ability of human lung squamous carcinoma cells (NCI-H226). The experimental method was as described in Example 2.

[2] = system: human pancreatic cancer cells (PANC-1); assay: transwell migration assay, PANC-1 cells; conditions: PANC-1 transwell migration, 10 μM, 24 hours; control group 360 ± 60
Procedure: The Transwell chamber system was used in the transwell cell migration experiment. The chamber has an upper layer and a lower layer, which are separated by an artificial semipermeable membrane in the middle. Cells that have migrated through the semi-permeable membrane will attach to the lower surface of the semi-permeable membrane. The migration ability is evaluated by counting the number of cells on the lower surface of the semi-permeable membrane. The number of cells that have migrated is negatively correlated with the inhibitory effect of the drug on the migration ability of the tumor cells. Transwell migration assay was performed as follows: tumor cells were cultured in vitro, cells in logarithmic growth phase were collected, and cell suspension was prepared with fresh serum-free medium at a density of 2-3×10^5 cells/mL. Cells were inoculated, 100 μL/well cell suspension (serum-free medium) in the upper chamber and 600 μL/well complete culture medium in the lower chamber. After incubated in 37° C., 5% CO2 incubator for 4-5 hours, serum-free medium (100 μL/well) was added to the control group, and serum-free medium containing polypeptide or derivative thereof (N1-N54) was added to the upper chamber of the treatment group (100 μL/well), the final concentration of the peptide or derivative thereof in the upper chamber was 10 μM. The cells were incubated continuously for 24 hours, and then fixed with methanol and stained with crystal violet. Images were taken under a microscope and the number of migrated cells was counted with ImageJ.
This example was a transwell cell migration experiment to evaluate the inhibitory effect of the polypeptide or derivative thereof (N1-N54) on the migration ability of human pancreatic cancer cells (PANC-1). The experimental method was as described in Example 3.

[3] = system: human liver cancer cells (HepG2); assay: scratch assay, migration of HepG2 cells; conditions: HepG2, 10 μM, 48 hours; control group 71.01 ± 6.63
Procedure: as §1
This example was a scratch assay to evaluate the inhibitory effect of the polypeptide or derivative thereof (N1-N54) on the migration ability of human liver cancer cells (HepG2). The experimental method was as described in Example 2.

[4] = system: human breast cancer cells (MDA-MB-453); assay: scratch assay, migration of MDA-MB-453 cells; conditions: MDA-MB-453, 10 μM, 48 hours; control group 32.42 ± 2.04
Procedure: as §1
This example was a scratch assay to evaluate the inhibitory effect of the polypeptide or derivative thereof (N1-N54) on the migration ability of human breast cancer cells (MDA-MB-453). The experimental method was as described in Example 2.

[5] = system: human breast cancer cells (MCF-7); assay: scratch assay, migration of MCF-7 cells; conditions: MCF-7, 10 μM, 48 hours; control group 30.97 ± 1.79
Procedure: as §1
This example was a scratch assay to evaluate the inhibitory effect of the polypeptide or derivative thereof (N1-N54) on the migration ability of human breast cancer cells (MCF-7). The experimental method was as described in Example 2.

[6] = system: human oral epidermoid carcinoma KB cells; assay: scratch assay, migration of KB cells; conditions: 10 μM, 48 hours, control group 54.03 ± 4.21
Procedure: as §1
This example was a scratch assay to evaluate the inhibitory effect of the polypeptide or derivative thereof (N1-N54) on the migration ability of human oral epidermoid carcinoma cells (KB). The experimental method was as described in Example 2.

[7] = system: human pharyngeal squamous-cell carcinoma cells (Fadu); assay: scratch assay, migration of Fadu cells; conditions: 10 μM, 48 hours, control group 28.76 ± 4.08
Procedure: as §1
This example was a scratch assay to evaluate the inhibitory effect of the polypeptide or derivative thereof (N1-N54) on the migration ability of human pharyngeal squamous-cell carcinoma cells (Fadu). The experimental method was as described in Example 2.

[8] = system: human prostate cancer cells (22RV1); assay: scratch assay, migration of 22RV1 cells; conditions: 22RV1, 10 μM, 48 hours; control group 25.41 ± 5.01
Procedure: as §1
This example was a scratch assay to evaluate the inhibitory effect of the polypeptide or derivative thereof (N1-N54) on the migration ability of human prostate cancer cells (22RV1). The experimental method was as described in Example 2.

Row | Substance | Migration rate (%) (mean ± SD, P) [1] | Number of cells (mean ± SD, P), migrated cells [2] | Migration rate (%) (mean ± SD, P) [3] | Migration rate (%) (mean ± SD, P) [4] | Migration rate (%) (mean ± SD, P) [5] | Migration rate (%) (mean ± SD, P) [6] | Migration rate (%) (mean ± SD, P) [7] | Migration rate (%) (mean ± SD, P) [8]
1 | N23: SEQ ID NO: 1 with substitution A7R, deletion of position 11 and of positions 15-18 (YRVRFLRKENTQDAED) | 13.24 ± 8.19,*** % | 200 ± 14,*** | 17.22 ± 7.12,*** % | 18.2 ± 3.53,** % | 10.20 ± 2.86,** % | 10.57 ± 1.7,*** % | 16.93 ± 3.67,* % | 5.7 ± 3.23,** %
2 | N24: SEQ ID NO: 1 with substitution A7R, deletion of positions 1-2 and of position 18 (VRFLRKENVTQDAED) | 15.74 ± 8.70,*** % | 239 ± 24,* | 16.38 ± 6.48,*** % | 15.84 ± 4.44,* % | 9.43 ± 1.12,** % | 24.03 ± 4.21,* % | 14.07 ± 5.12,* % | 8.44 ± 1.63,** %
3 | N25: SEQ ID NO: 1 with substitution N18R and addition of two amino acids at the carboxyl terminal (YRVRFLAKENVTQDAEDRCT) | 15.03 ± 8.16,*** % | 217 ± 31,** | 14.22 ± 7.10,*** % | 21.05 ± 2.53,* % | 9.16 ± 2.51,** % | 18.32 ± 2.63,** % | 9.89 ± 2.47,*** % | 13.02 ± 2.27,* %
4 | N26: SEQ ID NO: 1 with substitution A15R, addition of one amino acid at the amino terminal and one at the carboxyl terminal (FYRVRFLAKENVTQDREDNC) | 18.41 ± 7.90,*** % | 119 ± 17,*** | 16.86 ± 7.90,*** % | 6.19 ± 1.42,*** % | 10.43 ± 3.34,** % | 23.71 ± 4.86,* % | 13.70 ± 4.57,** % | 11.42 ± 2.08,* %
5 | N27: SEQ ID NO: 1 with addition of one amino acid at the carboxyl terminal and PEG modification at the carboxyl terminal (YRVRFLAKENVTQDAEDNC-{PEG}; reading uncertain) | 31.19 ± 5.96,*** % | 143 ± 25,*** | 39.99 ± 3.19,** % | 21.24 ± 3.73,* % | 8.40 ± 2.44,** % | 12.53 ± 3.88,** % | 15.99 ± 3.96,* % | 14.76 ± 2.79,* %
6 | N28: SEQ ID NO: 1 with deletion of positions 1-2 and 18 and PEG modification at the amino terminal ({PEG}-VRFLAKENVTQDAED; reading uncertain) | 18.08 ± 7.38,*** % | 148 ± 21,*** | 12.25 ± 8.40,*** % | 11.32 ± 5.61,** % | 14.83 ± 5.38,* % | 11.24 ± 3.52,*** % | 15.23 ± 3.59,* % | 15.63 ± 2.59,* %
7 | N29: SEQ ID NO: 1 with deletion of positions 1-5 and 15-18 and PEG modification at the amino terminal ({PEG}-LAKENVTQD; reading uncertain) | 40.30 ± 4.81,** % | 178 ± 31,*** | 10.62 ± 8.97,*** % | 13.73 ± 3.29,** % | 19.15 ± 3.04,* % | 8.07 ± 1.79,*** % | 12.27 ± 2.23,** % | 9.99 ± 3.89,* %
8 | N30: SEQ ID NO: 1 with deletion of positions 1-5 and 15-18 and PEG modification at the carboxyl terminal (LAKENVTQD-{PEG}; reading uncertain) | 13.91 ± 7.36,*** % | 243 ± 33,* | 16.60 ± 7.85,*** % | 15.77 ± 2.33,*** % | 14.34 ± 4.06,* % | 8.75 ± 3.35,*** % | 13.85 ± 3.59,** % | 10.82 ± 2.55,* %
9 | N31: SEQ ID NO: 1 with deletion of positions 3, 4, 11 and 15-18 and PEG modification at the carboxyl terminal (YRFLAKENTQD-{PEG}; reading uncertain) | 15.70 ± 8.17,*** % | 217 ± 40,** | 13.64 ± 7.59,*** % | 10.49 ± 3.13,*** % | 9.27 ± 2.23,** % | 7.17 ± 1.67,*** % | 12.13 ± 5.10,** % | 12.40 ± 2.24,* %
10 | N32: SEQ ID NO: 1 with deletion of positions 1-3, addition of one amino acid and PEG modification at the carboxyl terminal (RFLAKENVTQDAEDNC-{PEG}; reading uncertain) | 19.47 ± 6.42,*** % | 219 ± 13,*** | 15.49 ± 8.35,*** % | 17.55 ± 3.48,** % | 14.18 ± 2.82,** % | 11.70 ± 2.95,*** % | 14.63 ± 4.96,* % | 8.68 ± 1.66,** %
